The values that follow come from patent US8003847B2, “Non-human mutant mammals deficient in Sigma receptors and their applications” (Laboratorios Del Dr. Esteve, S.A., priority 2002, dated 2011).

The target of assay [1] is type-2 Sigma receptors (Homo sapiens, UniProt Q5BJF2). The conditions noted are these: type-2 Sigma receptor, result in words; cited from earlier work.
In assay [2] the target is type-1 Sigma receptors (Homo sapiens, UniProt Q99720). The conditions noted are these: type-1 Sigma receptor, result in words; cited from earlier work.
The target in assay [3] is Sigma-1 receptor (Mus musculus, UniProt O55242). The conditions noted are these: in vivo. The procedure:
Fifthly, the function of the Sigma-1 receptor was evaluated according to known behavioral paradigms and protocols.

The subject of assay [4] is mouse Sigma-1 receptor. Kind of assay: specific binding test to the [3H]-pentazocine ligand, brain membrane fraction. The conditions noted are these: brain membranes of homozygous mutant (-/-) mice; 37° C., 130-170 minutes.
Protocol: Fourthly, the activity (function) of the mouse Sigma-1 receptor was evaluated by a specific binding test to the [^3H]-pentazocine ligand. Briefly, the brains of mutant (−/−), heterozygous (+/−) and wild (+/+) mice were homogenised and the homogenisations ere centrifuged several times at different speeds to obtain the membrane fraction. Then samples of the membrane fraction obtained were incubated with the [^3H]-pentazocine radioligand in optimal binding conditions for this receptor (37° C., for 130-170 minutes), filtrating the samples, washing them and reading the radioactivity count present in the filtrate (see DeHaven-Hudkins D. L., Fleissner L. C., Ford-Rice, F. Y. (1992) Characterization of the binding of [3H]-Pentazocine to sigma recognition sites in guinea pigs brain. European Journal of Pharmacology 227:371-378, hereinafter DeHaven-Hudkins).

Sequence of type-1 Sigma receptors (Q99720 whole entry): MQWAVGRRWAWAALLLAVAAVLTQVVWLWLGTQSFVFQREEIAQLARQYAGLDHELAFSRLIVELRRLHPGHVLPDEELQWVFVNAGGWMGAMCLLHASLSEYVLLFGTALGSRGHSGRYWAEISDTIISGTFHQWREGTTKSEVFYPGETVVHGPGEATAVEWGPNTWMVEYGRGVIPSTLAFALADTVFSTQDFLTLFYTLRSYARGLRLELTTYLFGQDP
Sequence of type-2 Sigma receptors (Q5BJF2 whole entry): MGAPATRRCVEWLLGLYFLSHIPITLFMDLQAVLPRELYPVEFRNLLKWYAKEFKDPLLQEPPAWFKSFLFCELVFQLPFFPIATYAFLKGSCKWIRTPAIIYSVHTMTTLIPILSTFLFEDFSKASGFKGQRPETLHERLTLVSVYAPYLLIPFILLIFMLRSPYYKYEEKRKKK
Sequence of Sigma-1 receptor (O55242 whole entry): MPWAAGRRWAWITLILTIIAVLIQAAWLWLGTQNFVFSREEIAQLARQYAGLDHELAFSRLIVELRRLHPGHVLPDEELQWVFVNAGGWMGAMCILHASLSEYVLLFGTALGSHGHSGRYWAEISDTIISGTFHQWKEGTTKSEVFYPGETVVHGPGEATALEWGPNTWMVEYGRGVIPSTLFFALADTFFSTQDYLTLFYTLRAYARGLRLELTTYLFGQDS

On to (+)-SKF10047, for which, in assay [1], the affinity result is given as “low affinity”.

As to `O=C(CCCN1CCC(O)(c2ccc(Cl)cc2)CC1)c1ccc(F)cc1` [haloperidol], the affinity result in assay [1] is recorded as “high to moderate affinity”.

With N-allylnormetazocine [SKF-10047], the affinity result in assay [2] is reported as “high affinity”. The “hyperactivity (hypermotility) response” value in assay [3] was “Statistically significant differences have only been observed with wild mice”.

In the case of `[3H]c1cc2c(c([3H])c1O)[C@@]1(C)CCN(CC=C(C)C)[C@@H](C2)[C@H]1C` [[^3H]-pentazocine], the “specific binding of radioligand (activity/function of receptor)” value in assay [4] is on record as “lack of activity (function)”.

Consider `CC(C)=CCN1CCC2(C)c3cc(O)ccc3CC1C2C` (single isomer, unassigned; (+)) [(+)-pentazocine], for which the affinity result is on record as “low affinity” in assay [1] and “high affinity” in assay [2].

Turning to `C[C@@H]1CN(CCCn2c3ccccc3c3ccccc32)C[C@H](C)N1` [rimcazole], the affinity result in assay [2] was “high affinity”.
